Source: patent US12246034B2, “Animal feed supplement and method” (CAN TECHNOLOGIES, INC., priority 2014, dated 2025)
Like-named read-outs stand apart in the source and are kept apart here.

Experiments:
sows [1] = conditions: for Probability of a higher Vitality score: scored within 30 seconds after birth; for Average weight at weaning: piglets
Protocol: A trial was conducted at the Sterksel Research farm in the Netherlands (part of Wageningen University Research). A total of 207 sows were used in the trial allocated based on parity over 6 treatments (n=34). […] Calcium levels were the same in all diets.
(§1) Until farrowing, sows received a fixed amount of feed (3.25 kg from day 107-113 and 2.7 kg/sow/day from day 113 till farrowing). During lactation the sows were fed the diets according to a step-up feeding schedule applied (increasing with 0.5 kg/sow/day) the same over the 6 treatments aiming at a peak intake of 7.5 kg/sow/day. Piglets were weaned from the sow at 27 days of age. Performance of sows (e.g. weight, backfat, piglets born alive, stillborn piglets, mortality of piglets) and piglets (e.g. weight at birth, after 48 hours and weaning) was measured on all sows and litters. A subset of sows (19-20 per treatment) was examined more in detail to get insight in the possible mode of action of nitrate. On this subset, blood samples were collected within 4 minutes after birth from 2 piglets out of every 4 piglets born. Blood gasses of umbilical cord blood were analyzed using the i-STAT handheld (Abbott). Vitality of piglets was scored within 30 seconds after birth according to Baxter et al. (2008) with 1 being the lowest and 4 being the highest score for vitality.

sows [2] = system: sows
Protocol: A field trial was conducted on a commercial farm in Denmark with 650 highly productive Danbred sows (Landrace x Yorkshire) inseminated with a pure line Duroc boar, between Nov. 17, 2014 and Jan. 16, 2015. A total of 139 sows (total number before analyzes) were included in the trial, divided over 3 subsequent sow groups farrowing over a time span of 6 weeks. For all analyzes SAS software (version 9.3, SAS Institute Inc., Cary, N.C.) was used. Sows received a dry meal transition feed (from gestation to lactation), fed from day 111 of gestation till day 5 of lactation, and were allocated to one of the two treatment groups based on parity. […] The total amount of calcium was equal between both experimental treatments. Number born alive (NBA), stillborn and mummies, litter birth weight, as well as back fat of the sows before farrowing (day 110 of gestation) and at weaning (day 24 of lactation) were measured. Litter weights at 24 hours and 3 days after birth were measured as well. On day 3 after birth blood samples were taken from 6 piglets (2 biggest, 2 medium and 2 smallest) from 65 litters of their tails when they were cut and analyzed on immunoglobulin G (IgG) concentration. Placentas of the sows were collected after the farrowing process was finished, stored in freezers and afterwards scored on redness for an indication of the vascularization of these placentas.

[3] = for pCO2 - Measured value / pH / pO2 - Measured value: umbilical cord blood piglets
Text: as §1

[4] = 0.03% nitrate in lactation diet
[5] = 0.06% nitrate in lactation diet
[6] = 0.09% nitrate in lactation diet
[7] = 0.12% nitrate in lactation diet
[8] = 0.15% nitrate in lactation diet
[9] = across 0.03-0.15% nitrate in feed
[10] = across 0.03-0.15% nitrate in lactation diet
[11] = across 0.03-0.15% nitrate, P<0.05

O=[N+]([O-])O [Nitrate, nitrate]
Aver. birth weight born alive pigs (sows [1]; [4]): 1308 grams | Average livability % (sows [1]; [4]): 76.1% | Average mortality % (sows [1]; [4]): 16.5% | Average piglet weight after 48 hours (sows [1]; [4]): 1.611 kg | Probability born alive (sows [1]; [4]): 0.95 | Probability livability (sows [1]; [4]): 0.85 | Probability mortality (sows [1]; [4]): 0.10 | Probability weaned (sows [1]; [4]): 0.91 | Total born (sows [1]; [4]): 16.8 | Total born alive (sows [1]; [4]): 15.2 | Total born mummified (sows [1]; [4]): 0.6 | Total still born (sows [1]; [4]): 1.6 | Total weaned (sows [1]; [4]): 12.3 | total birth weight litter life born piglets (sows [1]; [4]): 19.5 kg | total litter weight weaning (sows [1]; [4]): 91.8 kg | Probability of a higher Vitality score (sows [1]; [4]): 0.70 | Aver. birth weight born alive pigs (sows [1]; [5]): 1320 grams | Average livability % (sows [1]; [5]): 78.3% | Average mortality % (sows [1]; [5]): 16.2% | Average piglet weight after 48 hours (sows [1]; [5]): 1.598 kg | Probability born alive (sows [1]; [5]): 0.97 | Probability livability (sows [1]; [5]): 0.86 | Probability mortality (sows [1]; [5]): 0.10 | Probability weaned (sows [1]; [5]): 0.91 | Total born (sows [1]; [5]): 16.8 | Total born alive (sows [1]; [5]): 15.7 | Total born mummified (sows [1]; [5]): 0.7 | Total still born (sows [1]; [5]): 1.1 | Total weaned (sows [1]; [5]): 12.4 | total birth weight litter life born piglets (sows [1]; [5]): 20.3 kg | total litter weight weaning (sows [1]; [5]): 91.8 kg | Probability of a higher Vitality score (sows [1]; [5]): 0.74 | Aver. birth weight born alive pigs (sows [1]; [6]): 1329 grams | Average livability % (sows [1]; [6]): 81.3% | Average mortality % (sows [1]; [6]): 12.7% | Average piglet weight after 48 hours (sows [1]; [6]): 1.621 kg | Probability livability (sows [1]; [6]): 0.89 | Probability mortality (sows [1]; [6]): 0.07 | Probability weaned (sows [1]; [6]): 0.94 | Total born (sows [1]; [6]): 16.1 | Total born mummified (sows [1]; [6]): 0.5 | Total still born (sows [1]; [6]): 1.2 | total birth weight litter life born piglets (sows [1]; [6]): 20.2 kg | total litter weight weaning (sows [1]; [6]): 96.9 kg | Probability of a higher Vitality score (sows [1]; [6]): 0.80 | Aver. birth weight born alive pigs (sows [1]; [7]): 1326 grams | Average livability % (sows [1]; [7]): 80.0% | Average mortality % (sows [1]; [7]): 14.0% | Average piglet weight after 48 hours (sows [1]; [7]): 1.640 kg | Probability born alive (sows [1]; [7]): 0.96 | Probability livability (sows [1]; [7]): 0.88 | Probability mortality (sows [1]; [7]): 0.08 | Probability weaned (sows [1]; [7]): 0.93 | Total born (sows [1]; [7]): 17.1 | Total born alive (sows [1]; [7]): 15.8 | Total born mummified (sows [1]; [7]): 0.5 | Total still born (sows [1]; [7]): 1.3 | Total weaned (sows [1]; [7]): 13.0 | total birth weight litter life born piglets (sows [1]; [7]): 20.8 kg | total litter weight weaning (sows [1]; [7]): 98.6 kg | Probability of a higher Vitality score (sows [1]; [7]): 0.78 | Aver. birth weight born alive pigs (sows [1]; [8]): 1355 grams | Average livability % (sows [1]; [8]): 79.0% | Average mortality % (sows [1]; [8]): 14.8% | Average piglet weight after 48 hours (sows [1]; [8]): 1.692 kg | Probability born alive (sows [1]; [8]): 0.96 | Probability livability (sows [1]; [8]): 0.87 | Probability mortality (sows [1]; [8]): 0.09 | Probability weaned (sows [1]; [8]): 0.92 | Total born (sows [1]; [8]): 16.6 | Total born alive (sows [1]; [8]): 15.3 | Total born mummified (sows [1]; [8]): 0.3 | Total still born (sows [1]; [8]): 1.3 | Total weaned (sows [1]; [8]): 12.6 | total birth weight litter life born piglets (sows [1]; [8]): 21.0 kg | total litter weight weaning (sows [1]; [8]): 96.8 kg | Probability of a higher Vitality score (sows [1]; [8]): 0.79 | Total litter weight at weaning on increasing nitrate addition (sows [1]; [9]): significantly (P<0.05) improved | Vitality score of the piglets on increasing nitrate addition (sows [1]; [9]): significantly (P<0.05) improved | livability, effect of higher nitrate levels (sows [1]; [10]): increase | mortality, effect of higher nitrate levels (sows [1]; [10]): tended to lower | weaned piglets per litter, effect of higher nitrate levels (sows [1]; [10]): more | average piglet birth weight with increasing nitrate levels (sows [1]; [11]): higher | average piglet weight at 48 h with increasing nitrate levels (sows [1]; [11]): higher | total liter birth weight with increasing nitrate levels (sows [1]; [11]): higher | Probability of weaned piglets with increasing nitrate inclusion (sows [1]; across 0.03-0.15% nitrate, P<0.10): improved | Probability born alive (sows [1]; in vivo): 0.96 | Total born alive (sows [1]; in vivo): 14.9 | Total weaned (sows [1]; in vivo): 12.7 | Average weight at weaning (sows [1]; [4]): 7.439 kg | Average weight at weaning (sows [1]; [5]): 7.321 kg | Average weight at weaning (sows [1]; [6]): 7.472 kg | Average weight at weaning (sows [1]; [7]): 7.550 kg | Average weight at weaning (sows [1]; [8]): 7.608 kg | NBA (Number Born Alive) (sows [2]; 0.1% Bolifor CNF in transition feed, LS Means ± SEM): increased | NBD (Number Born Death), stillborn piglets (sows [2]; 0.1% Bolifor CNF in transition feed, log transformed, back-transformed to absolute values): decreased | Colostrum, CI (Colostrum Intake) (sows [2]; 0.1% Bolifor CNF, calculated colostrum intake): No differences were found | pCO2 - Measured value ([3]; 0.03% nitrate in sow diet): 34.1 mmHg | pH ([3]; 0.03% nitrate in sow diet): 7.5 | pO2 - Measured value ([3]; 0.03% nitrate in sow diet): 33.8 mmHg | pCO2 - Measured value ([3]; 0.06% nitrate in sow diet): 34.5 mmHg | pH ([3]; 0.06% nitrate in sow diet): 7.5 | pO2 - Measured value ([3]; 0.06% nitrate in sow diet): 35.4 mmHg | pCO2 - Measured value ([3]; 0.09% nitrate in sow diet): 34.9 mmHg | pH ([3]; 0.09% nitrate in sow diet): 7.5 | pO2 - Measured value ([3]; 0.09% nitrate in sow diet): 34.5 mmHg | pCO2 - Measured value ([3]; 0.12% nitrate in sow diet): 34.5 mmHg | pH ([3]; 0.12% nitrate in sow diet): 7.5 | pO2 - Measured value ([3]; 0.12% nitrate in sow diet): 35.6 mmHg | pCO2 - Measured value ([3]; 0.15% nitrate in sow diet): 34.8 mmHg | pH ([3]; 0.15% nitrate in sow diet): 7.5 | pO2 - Measured value ([3]; 0.15% nitrate in sow diet): 35.3 mmHg | pO2 values with increasing nitrate addition ([3]; umbilical cord blood, across 0.03-0.15% nitrate): linearly improved
